What was measured:
[1] = target: T1, serotonin 5-HT3 receptor (Mus musculus, UniProt P23979); test: Radioligand binding assay with [3H]-GR-65630 on membranes of cell line N1E-115; design: species or system human; conditions: for Ki: competition with [^3H]-GR-65630 (0.35 nM), N1E-115 membranes, 20 mM HEPES pH 7.4, 150 mM NaCl, 25°C, 60 min, Cheng and Prusoff, read-out: Kl
T1 construct: the 5-HT3 receptor which was endogenously expressed in the human cell line N1E-115; endogenous in cells; host or cells: N1E-115 neuroblastoma cells (membrane suspensions)
T1 sequence (P23979 24-483 isoform P23979-2 limits assumed): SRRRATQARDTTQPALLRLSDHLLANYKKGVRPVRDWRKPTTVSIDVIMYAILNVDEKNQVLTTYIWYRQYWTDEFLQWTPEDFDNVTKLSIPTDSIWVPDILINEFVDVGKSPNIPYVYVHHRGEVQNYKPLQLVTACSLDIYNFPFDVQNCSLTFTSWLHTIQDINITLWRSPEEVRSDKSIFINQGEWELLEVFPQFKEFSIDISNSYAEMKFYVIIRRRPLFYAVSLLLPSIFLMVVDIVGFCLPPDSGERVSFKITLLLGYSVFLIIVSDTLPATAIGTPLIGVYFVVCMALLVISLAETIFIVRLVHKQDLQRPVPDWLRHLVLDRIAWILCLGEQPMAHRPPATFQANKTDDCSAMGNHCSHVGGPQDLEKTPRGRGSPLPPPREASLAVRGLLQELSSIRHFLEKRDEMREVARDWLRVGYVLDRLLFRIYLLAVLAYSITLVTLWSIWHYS
Experimental: 1. Affinity of 4-hydroxy derivatives of 5,6,9,10-tetrahydro-10-[(2-methyl-1H-imidazol-1-yl)methyl]-4H pyrido-[3,2,1-jk]-carbazol-11(8H)-one of formulas Ib - le for the human serotonin 5-HT3 receptor
In this test method, the ability of the 4-hydroxy derivatives of 5,6,9,10-tetrahydro-10-[(2-methyl-1H-imidazol-1-yl)methyl]-4H-pyrido-[3,2,1-jk]-carbazol-11(8H)-one of formulas Ib - le was assessed, for binding to the 5-HT3 receptor which was endogenously expressed in the human cell line N1E-115 and using tritiated GR-65630 as a radioligand.
The binding assays were carried out using the method of Hoyer and Neijt (see Hoyer, D., Neijt H.C., Mol. Pharmacol. 33, (1988) 303-309). Tritiated GR-65630 was used as radioligand and membrane suspensions, prepared in a known manner from the human neuroblastoma cell line N1E-115. Compounds have been tested for binding in various concentrations to compete with [^3H]-GR-65630 (0.35 nM final concentration) in 20 mM HEPES pH 7.4, containing 150 mM NaCl at 25°C for 60 min. Thereafter, the membranes were filtrated over glass fiber filters and bound radioactivity was counted by liquid scintillation counting. Each concentration was tested in triplicate, nonspecific binding was assessed by incubation with the reference compound MDL-72222 (1 µM).
Plotting the amount of bound radioactivity against the concentration of the competing compound allowed estimation of an IC50 value, i.e. that concentration at which 50% of the control radioligand binding remains. […]

[2] = target: T2, 5-HT3 receptor (Cavia porcellus, UniProt O70212); test: 2-methyl-5-HT induced contractions in isolated guinea-pig ileal preparations (5-HT3 receptor antagonism, Schild plot); design: species or system guinea pigs; conditions: for effect on concentration response curve for 2-methyl-5-HT: bath application; for effect on concentration response curve for 2-methyl-5-HT / Kb: guinea-pig ileum; for Kb: agonist 2-methyl-5-HT 0.32 - 100 µM, bath concentrations 0.1 and 1 µM (Ib), 1 and 3 µM (Ic), 5-6 preparations, read-out: pA2 (converted)
T2 construct: lleal segments were isolated and mounted in an organ bath; from tissue; host or cells: isolated guinea-pig ileal segments (female, Pirbright White)
T2 sequence (O70212 20-490): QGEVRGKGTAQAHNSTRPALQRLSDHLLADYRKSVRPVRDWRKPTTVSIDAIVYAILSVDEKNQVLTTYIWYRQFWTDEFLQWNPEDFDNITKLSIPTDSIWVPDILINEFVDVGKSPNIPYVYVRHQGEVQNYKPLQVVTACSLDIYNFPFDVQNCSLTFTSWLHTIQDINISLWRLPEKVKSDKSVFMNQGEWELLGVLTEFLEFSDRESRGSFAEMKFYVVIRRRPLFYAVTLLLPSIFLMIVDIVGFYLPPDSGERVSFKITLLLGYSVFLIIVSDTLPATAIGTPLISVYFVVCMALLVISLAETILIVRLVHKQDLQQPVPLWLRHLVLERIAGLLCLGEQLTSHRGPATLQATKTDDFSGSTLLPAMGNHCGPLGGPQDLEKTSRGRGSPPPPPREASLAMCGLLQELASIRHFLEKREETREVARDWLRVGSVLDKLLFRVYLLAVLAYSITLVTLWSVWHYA
From the text: 2. Effect of mammalian cilansetron 4-hydroxymetabolites from dog's urine of formulas Ib and Ic on 2-methyl-5-HT induced contractions in ileal preparations isolated from guinea pigs (5-HT3 receptor antagonism)
In this test method, the antagonistic potency of the mammalian cilansetron 4-hydroxymetabolites from dog's urine of formulas Ib and Ic was investigated by determining the shift of the concentration-response curve for the specific 5-HT3 receptor agonist 2-methyl-5-HT in preparations from the guinea-pig ileum.
Guinea-pigs (female, Pirbright White, about 300 g) were killed by a blow on the head and bled from the carotid arteries. lleal segments were isolated and mounted in an organ bath containing a salt solution continuously gassed with carbogen and kept at 37 °C. The composition of the solution in mM was 136.9 NaCl, 2.7 KCI, 1.77 CaCl2, 0.8 MgCl2, 0.6 NaH2PO4, 11.9 NaHCO3, and 5 glucose. The preparations were preloaded with 10 mN and allowed to equilibrate for 90 - 120 minutes (= min.). The concentration response curves for 2-methyl-5-HT (0.32 - 100 µM, by company Sigma) were constructed non-cumulatively to avoid desensitization. The measurement was made at the point of maximal contraction and the agonist was washed out as soon as peak response was reached. A first 2-methyl-5-HT curve was followed by another concentration response curve in the presence of one concentration of the antagonist. The response to the highest concentration of 2-methyl-5-HT obtained in the first concentration response curve was set to 100 %. For each compound at least two concentrations of the antagonist were tested in different sets. Data from 5-6 preparations were used for each concentration response curve. Schild plots were calculated and the pA2 value was determined. The pA2-value is the negative logarithm of the molar concentration of the antagonist which causes a rightward shift of the concentration response curve for the agonist by a factor of 2. The higher the pA2-value is, the higher is the potency of a compound.
All test compounds were initially dissolved in dimethylsulfoxide (= DMSO) at concentrations of 10^-2 mol/I and were further diluted with water. The final bath concentrations for the different compounds used were 0.1 and 1 µM for compound of formula Ib and 1 and 3 µM for compound of formula Ic. […]
In this test method, the 5-HT3 agonist 2-methyl-5-HT evoked dose-dependent contractions of the guinea-pig ileum with a pD2-value of 5.2. The pD2-value is the negative logarithm of the molar […].

Structure (SMILES) | Ki [1] [nM] | effect on concentration response curve for 2-methyl-5-HT [2] | Kb [2] [nM] | also measured
Cc1nccn1C[C@H]1CCc2c(c3cccc4c3n2CC[C@H]4O)C1=O [Ic] | 10 | dose-dependent shift of the concentration response curve to the right | 355 | –
Cc1[nH]c2ccc(O)cc2c1CCN [2-methyl-5-HT, reference compound] | – | – | – | EC50 ([2]; agonist-evoked dose-dependent contractions of the guinea-pig ileum, read-out: pD2-value (converted)): 6.31 µM
Cc1nccn1C[C@H]1CCc2c(c3cccc4c3n2CC[C@@H]4O)C1=O [Ib] | 3 | dose-dependent shift of the concentration response curve to the right | 186 | –
Cc1nccn1C[C@@H]1CCc2c(c3cccc4c3n2CC[C@H]4O)C1=O [le] | 38 | – | – | –
Cc1[nH]cnc1CCC(=O)c1cn(C)c2ccccc12 [[^3H]-GR-65630, reference compound] | – | – | – | Kd ([1]; radioligand, established separately, read-out: Kd, the affinity constant for [^3H]-GR-65630): 0.33 nM
Cc1nccn1C[C@@H]1CCc2c(c3cccc4c3n2CC[C@@H]4O)C1=O [Id] | 8.8 | – | – | –
